Reference: US11180474B2 (BRISTOL-MYERS SQUIBB COMPANY, priority 2016, dated 2021)
Structures can show the parent of a compound that is named as a salt.

What was measured:
[1] = target: T1, human TLR9 (Homo sapiens, UniProt Q9NR96); assay: TLR9 inhibition reporter assay (HEK-Blue cells, SEAP reporter, ODN2006 stimulation); type: cell-based; settings: HEK-Blue cells overexpressing human TLR9, ODN2006 5 nM
T1 construct: host or cells: HEK-Blue cells
T1 sequence (Q9NR96 26-1032): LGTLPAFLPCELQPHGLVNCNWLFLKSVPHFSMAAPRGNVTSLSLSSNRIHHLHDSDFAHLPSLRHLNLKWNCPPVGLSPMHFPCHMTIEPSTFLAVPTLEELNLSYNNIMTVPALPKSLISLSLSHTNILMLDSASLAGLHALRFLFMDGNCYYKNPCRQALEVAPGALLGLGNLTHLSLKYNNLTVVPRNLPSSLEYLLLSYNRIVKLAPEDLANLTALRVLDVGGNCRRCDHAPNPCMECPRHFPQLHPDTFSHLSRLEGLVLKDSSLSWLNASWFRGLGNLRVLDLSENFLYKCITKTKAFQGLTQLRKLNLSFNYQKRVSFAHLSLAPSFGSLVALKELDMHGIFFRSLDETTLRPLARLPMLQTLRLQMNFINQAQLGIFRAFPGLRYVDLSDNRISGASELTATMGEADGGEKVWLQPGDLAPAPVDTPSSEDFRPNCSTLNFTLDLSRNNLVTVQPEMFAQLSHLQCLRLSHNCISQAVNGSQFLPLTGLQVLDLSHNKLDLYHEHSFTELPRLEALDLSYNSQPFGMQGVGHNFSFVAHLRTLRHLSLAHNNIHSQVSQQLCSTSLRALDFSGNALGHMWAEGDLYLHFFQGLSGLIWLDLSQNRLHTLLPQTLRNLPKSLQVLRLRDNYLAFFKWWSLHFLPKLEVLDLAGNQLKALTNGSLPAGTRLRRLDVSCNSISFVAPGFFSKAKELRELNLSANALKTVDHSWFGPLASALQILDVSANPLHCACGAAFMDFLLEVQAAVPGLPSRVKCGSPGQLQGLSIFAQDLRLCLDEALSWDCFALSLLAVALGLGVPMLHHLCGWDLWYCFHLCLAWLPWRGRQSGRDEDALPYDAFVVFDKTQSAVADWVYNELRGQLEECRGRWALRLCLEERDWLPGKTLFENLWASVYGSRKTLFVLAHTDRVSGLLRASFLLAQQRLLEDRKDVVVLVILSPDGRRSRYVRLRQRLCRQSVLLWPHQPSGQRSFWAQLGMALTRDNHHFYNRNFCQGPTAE
Method: (§1) TLR7/8/9 Inhibition Reporter Assays
HEK-Blue™-cells (Invivogen) overexpressing human TLR7, TLR8 or TLR9 receptors were used for screening inhibitors of these receptors using an inducible SEAP (secreted embryonic alkaline phosphatase) reporter gene under the control of the IFN-β minimal promoter fused to five NF-κB and AP-1-binding sites. Briefly, cells are seeded into Greiner 384 well plates (15000 cells per well for TLR7, 20,000 for TLR8 and 25,000 for TLR9) and then treated with test compounds in DMSO to yield a final dose response concentration range of 0.05 nM-50 μM. After a 30 minute compound pre-treatment at room temperature, the cells are then stimulated with a TLR7 ligand (gardiquimod at a final concentration of 7.5 μM), TLR8 ligand (R848 at a final concentration of 15.9 μM) or TLR9 ligand (ODN2006 at a final concentration of 5 nM) to activate NF-κB and AP-1 which induce the production of SEAP. After a 22 hour incubation at 37° C., 5% CO2, SEAP levels are determined with the addition of HEK-Blue™ Detection reagent (Invivogen), a cell culture medium that allows for detection of SEAP, according to manufacturer's specifications. The percent inhibition is determined as the % reduction in the HEK-Blue signal present in wells treated with agonist plus DMSO alone compared to wells treated with a known inhibitor.

[2] = target: T2, human TLR7 (Homo sapiens, UniProt Q9NYK1); assay: TLR7 inhibition reporter assay (HEK-Blue cells, SEAP reporter, gardiquimod stimulation); type: cell-based; settings: HEK-Blue cells overexpressing human TLR7, gardiquimod 7.5 μM
T2 construct: host or cells: HEK-Blue cells
T2 sequence (Q9NYK1 27-1049): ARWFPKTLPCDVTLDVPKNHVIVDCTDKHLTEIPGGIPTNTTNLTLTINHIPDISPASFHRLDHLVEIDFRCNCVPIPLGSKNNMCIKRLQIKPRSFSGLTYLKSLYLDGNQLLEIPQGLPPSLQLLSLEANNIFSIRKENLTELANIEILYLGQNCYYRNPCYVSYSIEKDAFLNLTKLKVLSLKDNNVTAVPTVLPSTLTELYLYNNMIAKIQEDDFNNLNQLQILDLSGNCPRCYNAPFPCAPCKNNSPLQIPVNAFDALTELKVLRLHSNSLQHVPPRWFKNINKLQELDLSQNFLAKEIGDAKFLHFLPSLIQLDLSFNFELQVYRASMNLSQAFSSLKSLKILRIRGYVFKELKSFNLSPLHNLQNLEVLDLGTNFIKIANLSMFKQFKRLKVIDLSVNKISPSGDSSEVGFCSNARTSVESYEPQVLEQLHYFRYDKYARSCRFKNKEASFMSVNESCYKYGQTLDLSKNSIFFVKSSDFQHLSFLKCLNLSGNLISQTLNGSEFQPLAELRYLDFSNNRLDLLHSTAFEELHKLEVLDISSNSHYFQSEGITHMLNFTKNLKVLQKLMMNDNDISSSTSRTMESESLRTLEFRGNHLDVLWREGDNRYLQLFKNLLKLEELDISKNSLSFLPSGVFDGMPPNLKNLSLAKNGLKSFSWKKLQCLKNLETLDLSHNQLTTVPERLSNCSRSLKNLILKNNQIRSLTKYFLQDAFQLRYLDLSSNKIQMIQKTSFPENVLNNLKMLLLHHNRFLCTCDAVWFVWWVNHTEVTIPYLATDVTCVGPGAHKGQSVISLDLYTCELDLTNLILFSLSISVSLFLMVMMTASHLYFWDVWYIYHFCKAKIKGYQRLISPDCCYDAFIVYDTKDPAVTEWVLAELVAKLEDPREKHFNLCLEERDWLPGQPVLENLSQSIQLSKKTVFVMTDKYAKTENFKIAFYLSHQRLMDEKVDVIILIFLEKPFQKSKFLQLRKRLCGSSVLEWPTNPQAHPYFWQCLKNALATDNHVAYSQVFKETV
Method: as §1
Briefly, cells are seeded into Greiner 384 well plates (15000 cells per well for TLR7, 20,000 for TLR8 and 25,000 for TLR9) and then treated with test compounds in DMSO to yield a final dose response concentration range of 0.05 nM-50 μM. […] After a 22 hour incubation at 37° C., 5% CO2, SEAP levels are determined with the addition of HEK-Blue™ Detection reagent (Invivogen), a cell culture medium that allows for detection of SEAP, according to manufacturer's specifications. The percent inhibition is determined as the % reduction in the HEK-Blue signal present in wells treated with agonist plus DMSO alone compared to wells treated with a known inhibitor.

| SMILES | IC50 [1] | IC50 [2] |
| --- | --- | --- |
| COc1ccc(-c2[nH]c3ccc(C4CCNCC4)cc3c2C)cc1OC [Example 1, 2-(3,4-dimethoxyphenyl)-3-methyl-5-(piperidin-4-yl)-1H-indole hydrochloride] | 5910 nM |  |
| COc1ccc(-c2[nH]c3ccc(C4CCN(C5CCNCC5)CC4)cc3c2C)cc1OC [Example 2, 5-([1,4′-bipiperidin]-4-yl)-2-(3,4-dimethoxyphenyl)-3-methyl-1H-indole dihydrochloride] | 206 nM | 985 nM |
| COc1ccc(-c2[nH]c3ccc(C4CCN(Cc5cnc(C)[nH]5)CC4)cc3c2C)cc1OC [Example 4, 2-(3,4-dimethoxyphenyl)-3-methyl-5-(1-((2-methyl-1H-imidazol-5-yl)methyl)piperidin-4-yl)-1H-indole] | 190 nM | 3770 nM |
| COc1ccc(-c2[nH]c3ccc(C4CCN(CCCO)CC4)cc3c2C)cc1OC [Example 5, 3-(4-(2-(3,4-dimethoxyphenyl)-3-methyl-1H-indol-5-yl)piperidin-1-yl)propan-1-ol] | 447 nM | 1710 nM |
| COc1ccc(-c2[nH]c3ccc(C4CCN(C5COC5)CC4)cc3c2C)cc1OC [Example 7, 2-(3,4-dimethoxyphenyl)-3-methyl-5-(1-(oxetan-3-yl)piperidin-4-yl)-1H-indole] | 569 nM | 2160 nM |
| COc1ccc(-c2[nH]c3ccc(C4CCN(C5CCN(c6ccccc6)C5)CC4)cc3c2C)cc1OC (stereo not drawn) [Example 8, 2-(3,4-dimethoxyphenyl)-3-methyl-5-(1-(1-phenylpyrrolidin-3-yl)piperidin-4-yl)-1H-indole] | ≥ 50000 nM | ≥ 50000 nM |
| COc1ccc(-c2[nH]c3ccc(C4CCN(C5CCN(C)CC5)CC4)cc3c2C)cc1OC [Example 11, 2-(3,4-dimethoxyphenyl)-3-methyl-5-(1′-methyl-[1,4′-bipiperidin]-4-yl)-1H-indole] | 216 nM | 934 nM |
| COc1ccc(-c2[nH]c3ccc(C4CCN(C5CCN(C(C)=O)CC5)CC4)cc3c2C)cc1OC [Example 12, 1-(4-(2-(3,4-dimethoxyphenyl)-3-methyl-1H-indol-5-yl)-[1,4′-bipiperidin]-1′-yl)ethan-1-one] | 649 nM | 1340 nM |
| CCOC(=O)N1CCC(N2CCC(c3ccc4[nH]c(-c5ccc(OC)c(OC)c5)c(C)c4c3)CC2)C1 (stereo not drawn) [Example 13, ethyl 3-(4-(2-(3,4-dimethoxyphenyl)-3-methyl-1H-indol-5-yl)piperidin-1-yl) pyrrolidine-1-carboxylate] | 1080 nM | ≥ 50000 nM |
| COc1ccc(-c2[nH]c3ccc(C4CCN(Cc5csc(N)n5)CC4)cc3c2C)cc1OC [Example 14, 4-((4-(2-(3,4-dimethoxyphenyl)-3-methyl-1H-indol-5-yl)piperidin-1-yl)methyl)thiazol-2-amine] | 1090 nM | 2110 nM |
| COc1ccc(-c2[nH]c3ccc(C4CCN(Cc5cccc6ncccc56)CC4)cc3c2C)cc1OC [Example 15, 5-((4-(2-(3,4-dimethoxyphenyl)-3-methyl-1H-indol-5-yl)piperidin-1-yl)methyl)quinoline] | 602 nM | 8300 nM |
| COc1ccc(-c2[nH]c3ccc(C4CCN(Cc5nccn5C)CC4)cc3c2C)cc1OC [Example 16, 2-(3,4-dimethoxyphenyl)-3-methyl-5-(1-((1-methyl-1H-imidazol-2-yl)methyl)piperidin-4-yl)-1H-indole] | 1970 nM |  |
| COc1ccc(-c2[nH]c3ccc(C4CCN(CC5CCOCC5)CC4)cc3c2C)cc1OC [Example 17, 2-(3,4-dimethoxyphenyl)-3-methyl-5-(1-((tetrahydro-2H-pyran-4-yl)methyl)piperidin-4-yl)-1H-indole] | 729 nM | 368 nM |
| COc1ccc(-c2[nH]c3ccc(C4CCN(Cc5ccc(N(C)C)c6ccccc56)CC4)cc3c2C)cc1OC [Example 19, 4-((4-(2-(3,4-dimethoxyphenyl)-3-methyl-1H-indol-5-yl)piperidin-1-yl)methyl)-N,N-dimethylnaphthalen-1-amine] | 2550 nM | 10500 nM |
| COc1ccc(-c2[nH]c3ccc(C4CCN(C5CC(C)(C)N(C)C(C)(C)C5)CC4)cc3c2C)cc1OC [Example 22, 2-(3,4-dimethoxyphenyl)-3-methyl-5-(1′,2′,2′,6′,6′-pentamethyl-[1,4′-bipiperidin]-4-yl)-1H-indole] | 1110 nM | 1160 nM |
| COc1ccc(-c2[nH]c3ccc(C4CCN(C5CCCC(N(C)C)C5)CC4)cc3c2C)cc1OC (stereo not drawn) [Example 25, 3-(4-(2-(3,4-dimethoxyphenyl)-3-methyl-1H-indol-5-yl)piperidin-1-yl)-N,N-dimethylcyclohexan-1-amine] | 169 nM | 317 nM |
| COc1ccc(-c2[nH]c3ccc(C4CCN(C5CCN(C6CCOCC6)CC5)CC4)cc3c2C)cc1OC [Example 26, 2-(3,4-dimethoxyphenyl)-3-methyl-5-(1′-(tetrahydro-2H-pyran-4-yl)-[1,4′-bipiperidin]-4-yl)-1H-indole] | 318 nM | 348 nM |
| COc1ccc(-c2[nH]c3ccc(C4CCN(C(C)c5ccccc5)CC4)cc3c2C)cc1OC (stereo not drawn) [Example 27, 2-(3,4-dimethoxyphenyl)-3-methyl-5-(1-(1-phenylethyl)piperidin-4-yl)-1H-indole] | 2800 nM | 850 nM |
| COc1ccc(-c2[nH]c3ccc(C4CCN(Cc5ccccn5)CC4)cc3c2C)cc1OC [Example 28, 2-(3,4-dimethoxyphenyl)-3-methyl-5-(1-(pyridin-2-ylmethyl)piperidin-4-yl)-1H-indole] | 1010 nM | 638 nM |
